Each block holds one molecule with its values, some of them ahead of it.
Assays:
[1] = DNP solid-state polarization signal and build-up (1.2 K, 3.35 T); conditions: DNP at 1.2 K
Description: To this solution 1.1 mg (0.77 μmol) radical 1 was added. […] This entire sample was hyperpolarized under DNP conditions at 1.2 K in a 3.35 T magnetic field under irradiation with microwave (93.900 GHz) until the polarization was fully build-up. The polarization was monitored in solid state with small pulse angles (5 degree) collected every 300 s.
This entire sample was polarized under DNP conditions at 1.2 K in a 3.35 T magnetic field under irradiation with microwave (93.900 GHz) until the polarization was fully built-up. The polarization was monitored in solid state with small pulse angles (5 degree) collected every 300 s.
To this solution 0.77 mg (0.54 μmol) radical 1 was added. […] This entire sample was polarized under DNP conditions at 1.2 K in a 3.35 T magnetic field under irradiation with microwave (93.900 GHz) until the polarization was fully built-up. The polarization was monitored in solid state with small pulse angles (5 degree) collected every 300 s.
To this solution 1.65 mg (1.15 μmol) radical 1 was added. […] This entire sample was polarized under DNP conditions at 1.2 K in a 3.35 T magnetic field under irradiation with microwave (93.900 GHz) until the polarization was fully built-up. The polarization was monitored in solid state with small pulse angles (5 degree) collected every 300 s.
63.2 mg (0.33 mmol) of this sample was hyperpolarized under DNP conditions at 1.2 K in a 3.35 T magnetic field under irradiation with microwave (93.900 GHz) until the polarization was fully built-up.

[2] = Glass formation of the DNP preparation upon rapid freezing in liquid nitrogen; format: physicochemical
Description: Butyric acid (11.7 mg, 0.13 mmol) was placed into an Eppendorf tube and mixed with 9.0 mg of a glycerol solution containing 39 mM of Radical 1. This preparation was 7 M with respect to butyric acid.
Butyric anhydride (40 μl, 0.24 mmol) was added to an Eppendorf tube and mixed with 1 mg of Radical 3 in a total concentration of 15 mM. This preparation was 6.5 M with respect to butyric anhydride (which, upon hydrolysis provides a 13 M concentration in butyric acid molecules).
Butyric acetic anhydride (36 μl, 0.28 mmol) was added to an Eppendorf tube and mixed with 0.85 mg of acid form of Radical 3 in a total concentration of 15 mM. This preparation was 7.5 M with respect to butyric acetic acid.
Li-acetoacetate (22.4 mg, 0.21 mmol) was added to an Eppendorf tube and mixed with 28 μl of a DMSO preparation (25 mM Radical 3 and 0.8 mM 3-Gd). This preparation was 4 M with respect to Li-acetoacetate.
To an Eppendorf tube was added diketene (9.6 mg, 0.11 mmol) and mixed with 4.7 mg of a DMSO preparation of Radical 3 (45 mM) and 3-Gd (1.5 mM). This preparation was 8.5 M with respect to diketene.
Ethyl acetoacetate (45 μl, 0.34 mmol) was added to an Eppendorf tube and mixed with acid form of Radical 2 (0.7 mg, 0.65 μmol) in a total concentration of 15 mM. This preparation was 8 M with respect to ethyl acetoacetate.
Cis-aconitic acid (18.6 mg, 0.11 mmol) was added to an Eppendorf tube and mixed with a 32.5 μl DMSO preparation (25 mM Radical 3 and 0.8 mM 3-Gd). This preparation was 2.5 M with respect to cis-aconitic acid.
Cis-aconitic anhydride (188 mg, 1.2 mmol) was added to an Eppendorf tube and mixed with 2.85 mg (2 μmol) of Radical 1 and 0.98 mg of a 83 μmol/g solution of 3-Gd. This preparation was 9 M with respect to cis-aconitic anhydride.
Succinic acid (42.1 mg, 0.35 mmol) was added to an Eppendorf tube and mixed and mixed with 92 mg of a DMSO preparation (20 mM Radical 3 and 0.8 mM 3-Gd). This preparation was 4 M with respect to succinic acid.
Succinic anhydride (21.5 mg, 0.21 mmol) was added to an Eppendorf tube and mixed with 21.8 mg of a DMSO solution of Radical 3 (30 mM) and of 3-Gd (1 mM). This preparation was 6 M with respect to succinic anhydride.
Succinic-(1)-ethyl ester (111 mg, 0.75 mmol) was added to an Eppendorf tube and mixed with the carboxylic acid form of Radical 2 (2.4 mg, 1.5 μmol) and 3-Gd (3.4 μl of a 14.5 mM solution in water). This preparation was 6 M with respect to succinic-(1)-ethyl ester.
(§1) L-Glutamine (50.9 mg, 0.35 mmol) was added to an Eppendorf tube and dissolved in 29 μl of 12 M NaOH and mixed with 1.7 mg of radical 1 and 3-Gd (2.3 μl of a 14.5 mM water stock solution). This preparation was 4 M with respect to L-glutamine.

[3] = T1 relaxation time in solution at 14.1 T; format: physicochemical; conditions: for High field liquid state T1: 14.1 T magnet, phosphate buffer, pH 7.1-7.2
Description: The ester was only partly hydrolyzed.
The T1 of the hydrolyzed product, succinate is 33 s (14.1 T and 37° C.).
The sample was dissolved in 5 ml phosphate buffer (100 mM, pH 7) with added one equivalent HCl. The pH is 7.1 after dissolution.
The pH is 7.2 after dissolution.

[4] = Hydrolysis of the DNP hyperpolarized precursor on dissolution with strong base, followed by 13C-NMR time series; format: physicochemical
Description: (§2) The composition from example 1b (25 mg, 0.16 mmol) was transferred from the Eppendorf tube to a sample cup and the sample cup was inserted into a DNP polariser. The composition was hyperpolarised under DNP conditions at 1.2 K in a 3.35 T magnetic field under irradiation with microwave (93.915 GHz). The sample was hyperpolarized for 75 min.
The sample was dissolved in 4 ml water with added NaOH (50 μl of 12M solution). The pH of the dissolved sample was 12. The solution was collected directly into a 10 mm NMR tube and transferred to a 14.1 T magnet where a time series of 5 degree 1D 13C-NMR spectra were recorded with a total delay between the pulses of 1 s.
as §2, with “is (33” for “1b (25”, “0.25” for “0.16”, “90” for “75”
The sample was dissolved in 5 ml water with added NaOH (125 μl of 12M). The solution was collected directly into a 10 mm NMR tube and transferred to a 14.1 […]) T magnet where a time series of 5 degree 1D 13C-NMR spectra were recorded with a total delay between the pulses of 1 s.
(§3) The entire composition from example 2b was transferred from the Eppendorf tube to a sample cup and the sample cup was inserted into a DNP polariser. The composition was hyperpolarised under DNP conditions at 1.2 K in a 3.35 T magnetic field under irradiation with microwave (93.915 GHz). The sample was hyperpolarized for 3 hours.
(§4) The sample was dissolved in 5 ml water with added NaOH (125 μl of 12 M). The solution was collected directly into a 10 mm NMR tube and transferred to a 14.1 T magnet (pH 13) where a time series of 64 five degree 1D 13C-NMR spectra were recorded with a total delay between the pulses of 3 s.
as §2, with “is (20.5” for “1b (25”, “2 hours.” for “75 min.”
(§5) The sample was dissolved in 5 ml water with added NaOH (200 μl of 12 M). The solution was collected directly into a 10 mm NMR tube and transferred to a 14.1 T magnet (pH 12.8) where a time series of 5 degree 1D 13C-NMR spectra were recorded with a total delay between the pulses of 3 s.
as §3, with “The” for “The entire”, “2b was melted on a water-bath and stirred with a magnetic stirrer. 45 mg of this preparation (0.29 mmol)” for “2b”, “90 min.” for “3 hours.”
(§6) The sample was dissolved in 6 ml water with added NaOH (190 μl of 12 M). The solution was collected directly into a 10 mm NMR tube and transferred to a 14.1 T magnet (pH 12.8) where a time series of 64 five degree 1D 13C-NMR spectra were recorded with a total delay between the pulses of 3 s.

[5] = Degradation / isomerisation of the substrate in DNP preparation and dissolution (NMR)
Description: as §3, with “2a” for “2b”, “75 min.” for “3 hours.”
The sample was dissolved in 5 ml phosphate buffer pH 7.3 (40 mM+EDTA).
The solution was collected directly into a 10 mm NMR tube and transferred to a 14.1 T magnet where a 90 degree 1D 13C-NMR spectrum was recorded.
as §4, §5
The sample was dissolved in 5 ml 40 mM phosphate buffer pH 7.3+100 mg/l EDTA, thus resulting in an ester concentration of 20 mM. 1 ml of the ester solution was injected through a transfer line into a 10 mm NMR tube placed at 14.1 T and 37° C. The 10 mm NMR tube contained a 500 μl solution of approximately 270 U of a carboxylic-ester hydrolase from porcine liver. A time series of 10 degree 1D 13C-NMR spectra were recorded with a total delay between the pulses of 3 s.
as §5, with “phosphate buffer (40 mM, pH 7.3)” for “water”, “30” for “NaOH (200”, “μl” for “μl of”, “M NaOH. […]” for “M).”, “magnet” for “magnet (pH 12.8)”
as §6, §1
N-acetyl-L-glutamine (57.2 mg, 0.3 mmol) was added to an Eppendorf tube and dissolved in 25.3 μl of 12 M NaOH and mixed with 1.9 mg of radical 1 and 3-Gd (2.3 μl of a 14.5 mM water stock solution).

[6] = with trityl radical, without addition of glass-forming agents
[7] = dissolved in 12 M NaOH with radical 1
[8] = after 15 s, strong base (NaOH or NaOD), pH 11-12.2
[9] = after 10 s, water with added NaOH, pH 12-13
[10] = mixed with DMSO preparation of Radical 3
[11] = after 20 s, water with added NaOH, pH 12.9-13

SMILES: C=C(CC(=O)OCC)[13C](=O)OCC [1-13C Itaconate diethyl ester]
Polarization build-up time constant [1]: 2120 s
Glass formation upon rapid freezing [2, 6]: formed a glass

SMILES: [2H][13C]([2H])(N)C(=O)O [2-13C-d2-Glycine, reference compound]
High field liquid state T1 [3]: 46 s
Glass formation upon rapid freezing in liquid nitrogen [2, 7]: forms a glass

SMILES: [2H][13C]([2H])(NC(C)=O)C(=O)O [2-13C-d2-N-acetyl glycine]
High field liquid state T1 [3]: 40 s
Glass formation upon rapid freezing in liquid nitrogen [2, 7]: formed a glass

Precursor hydrolyzed [4, 8]: at least 95%
Glass formation upon rapid freezing [2, 6]: formed a glass
SMILES: CCOC(=O)C(=O)CCC(=O)O [2-oxoglutaric-(1)-ethyl ester]

SMILES: CCCC(=O)OC(C)=O [Butyric acetic anhydride]
Precursor hydrolyzed [4, 9]: at least 95%
Glass formation upon rapid freezing [2, 6]: formed a glass

Glass formation upon rapid freezing in liquid nitrogen ([2]; mixed with glycerol solution of Radical 1): formed a glass
Glass formation upon rapid freezing [2, 6]: crystallizes
SMILES: CCCC(=O)O [Butyric acid, reference compound]

Precursor hydrolyzed [4, 9]: at least 95%
Glass formation upon rapid freezing [2, 6]: formed a glass
SMILES: CCCC(=O)OC(=O)CCC [Butyric anhydride]

Glass formation upon rapid freezing ([2]; absence of a glass forming additive, Example 1d (Prophetic)): forms a glass
SMILES: CCCC(=O)OC(=O)OCC [Butyric ethylcarbonic anhydride]

SMILES: O=C(O)/C=C(/CC(=O)O)C(=O)O [Cis-aconitic acid, reference compound]
Amount of trans isomer of aconitate ([5]; after DNP and dissolution in phosphate buffer with NaOH, pH 7.2): about 10%
Glass formation upon rapid freezing in liquid nitrogen [2, 10]: formed a glass

Presence of trans-aconitate ([5]; after DNP and hydrolysis with NaOH, pH 12.8): neglectable
Precursor hydrolyzed [4, 9]: at least 95%
Glass formation upon rapid freezing [2, 6]: formed a glass
SMILES: O=C(O)CC1=CC(=O)OC1=O [Cis-aconitic anhydride, cis-Aconitic anhydride]

Precursor hydrolyzed ([4]; in less than 10 s, water with added NaOH, pH 11-12.6): at least 95%
SMILES: CCOC(=O)C1CSC(=O)N1 (centres unmarked) [Ethyl OTZ, 2-Oxothiazolidine-4-carboxylic ethyl ester]

Precursor hydrolyzed [4, 8]: at least 95%
Glass formation upon rapid freezing [2, 6]: formed a glass
SMILES: CCOC(=O)C(N)Cc1ccccc1 (centres unmarked) [Ethyl phenylalanine]

Amount of degradation in the DNP preparation ([5]; 4 M): 14%
Glass formation upon rapid freezing in liquid nitrogen [2, 7]: formed a glass
SMILES: NC(=O)CC[C@H](N)C(=O)O [L-Glutamine, reference compound]

Glass formation upon rapid freezing in liquid nitrogen [2, 7]: formed a glass
SMILES: N[C@@H](Cc1ccccc1)C(=O)O [L-Phenylalanine, reference compound]

SMILES: CC(=O)CC(=O)[O-].[Li+] [Li-acetoacetate, reference compound]
Amount of degradation (decarboxylation) ([5]; 1H NMR on DNP sample following dissolution in phosphate buffer pH 7.3): 40%
Glass formation upon rapid freezing in liquid nitrogen [2, 10]: formed a glass

Glass formation upon rapid freezing in liquid nitrogen [2, 10]: formed a glass
SMILES: O=C(O)CC(O)C(=O)O (centres unmarked) [Malic acid, reference compound]

Precursor hydrolyzed [4, 11]: at least 95%
Glass formation upon rapid freezing [2, 6]: formed a glass
SMILES: CCOC(=O)C(O)CC(=O)O (centres unmarked) [Malic-(1)-ethyl ester]

SMILES: O=C(O)CCC(=O)O [Succinic acid, reference compound]
Glass formation upon rapid freezing in liquid nitrogen [2, 10]: formed a glass

Precursor hydrolyzed [4, 9]: at least 95%
Glass formation upon rapid freezing in liquid nitrogen [2, 10]: formed a glass
SMILES: O=C1CCC(=O)O1 [Succinic anhydride]

Precursor hydrolyzed [4, 11]: at least 95%
Glass formation upon rapid freezing [2, 6]: formed a glass
SMILES: CCOC(=O)CCC(=O)O [Succinic-(1)-ethyl ester]

SMILES: CC(=O)CC(=O)O [acetoacetate]
Degradation (decarboxylation) of acetoacetate formed ([5]; after esterase hydrolysis of ethyl acetoacetate, pH 7.3): No degradation
Degradation (decarboxylation) of acetoacetate formed ([5]; after hydrolysis of precursor with NaOH, pH 12.8-13): No substantial degradation
T1 of the C1 position in the hydrolyzed product ([3]; 14.1 T and 37° C.): 32 s
T1 of the hydrolyzed product ([3]; 14.1 T and 37° C.): 32 s

SMILES: O=C(O)/C=C(/CC(=O)O)C(=O)O [cis-aconitate]
T1 of the hydrolyzed product ([3]; 14.1 T and 37° C.): 24 s

SMILES: C=C1CC(=O)O1 [diketene, 4-Methylideneoxetan-2-one]
Precursor hydrolyzed [4, 9]: at least 95%
Glass formation upon rapid freezing in liquid nitrogen [2, 10]: formed a glass

SMILES: O=C(O)CCC(=O)O [succinate]
T1 of the hydrolyzed product ([3]; 14.1 T and 37° C.): 33 s

— US9694090B2, “Process for preparing hyperpolarized substrates and method for MRI” (priority 2010, dated 2017)
